In patent publication US10501482B2, “Compounds for treating spinal muscular atrophy” (Hoffmann-La Roche Inc., priority 2013, dated 2019):

Experiments:
SMN protein = SMN protein assay (HTRF) in cultured SMA patient fibroblast cells; assay type: cell-based; settings: SMA Type 1 human fibroblasts GM03813, 48 hours
How it was run: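 SMA patient fibroblasts seeded at 5,000 cells/well, treated 48 h at 37 °C in triplicate per concentration (7-point series). Lysed in RIPA with protease inhibitors; SMN read by HTRF (anti-SMN d2/kryptate, overnight RT), 665/620 nm ratio. ΔF vs blank, expressed as fold over vehicle; EC1.5x and maximum fold increase derived.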

[1] = test system: full length SMN2 minigene mRNA (FL SMN2mini) in HEK293H cells stably transfected with the SMN2-A minigene construct; experiment: SMN2 minigene mRNA splicing RT-qPCR assay in cultured cells; assay type: cell-based; settings: Homo sapiens, HEK293-H, 24 hours, 7-point concentration curve, concentration giving 1.5-fold FL SMN2mini mRNA vs vehicle, read-out: EC1.5x minigene (EC1.5x concentration for production of full length SMN2 minigene mRNA)
How it was run: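 Stably transfected HEK293H cells, 10,000/well in DMEM/10% FBS with hygromycin, attached 6 h, then received compound for 24 h at 37° C in duplicate at 7 concentrations. Multiplex RT-qPCR with GAPDH used primers that detect only the minigene. An efficiency-corrected ΔΔCt, GAPDH- and vehicle-normalized, gave EC1.5x concentrations.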

## Cc1cn2cc(NC(=O)c3ccc(N4CCN(C)CC4)nc3)nc2c(C)n1 [Example 6, N-(6,8-dimethyl-imidazo[1,2-a]-pyrazin-2-yl)-6-(4-methyl-piperazin-1-yl)nicotinarnide]
SMN protein; 7-point concentration curve, concentration giving 1.5 times SMN protein vs vehicle
  EC1.5x SMN protein (EC1.5x concentration for SMN protein expression): 0.5305 µM
SMN protein; 7-point concentration data, fold vs vehicle control
  max. fold increase (maximum fold increase of SMN protein): 1.8047
[1]
  EC (1.5-fold): 0.233 µM
